Assay results from patent US20040259198A1, “Purified and isolated mat II beta subunit nucleic acids and polypeptides and therapeutic and screening methods using same” (priority 1999, published 2004).
Where two headings read alike, the source gives them in different places.

Key:
[1] = biological target: T1, MAT II from human leukemic cells (Homo sapiens, UniProt P31153); settings: cited from earlier work
T1 construct: MAT II from human leukemic cells expressing both the α and β subunits of the enzyme; host or cells: human leukemic cells

[2] = system: MAT III; settings: cited from earlier work
[3] = system: MAT I; settings: cited from earlier work
[4] = system: MAT II; assay: MAT activity and kinetics in extracts of transfected Cos-1 cells; type: biochemical, African green monkey; settings: for Km: Cos-1 cells expressing high levels of rα2, two kinetic forms, read-out: Km for L-Met, lower-Km kinetic form
Protocol: Transfection of Cos-1 cells with pTargeT™/MAT2A or pTargeT™/MAT2B was done using the cationic lipid reagent, Transfast™ (Promega). Preliminary experiments were carried out to optimize the transfection conditions. Typically, 1.5×10^6 cells were plated in 100 mm dish one day prior to transfection. For each plate, […] of vector DNA was applied in the ratio of 1:1 to Transfast™ in a protein-free medium for 2 h. For cells co-transfected with both α2 and β vectors, […] DNA from each was used. For each experiment, one untransfected plate served as a normal control, and a second plate was transfected with the pTargeT™ vector only (mock-transfected cells). After 48 h, cells were harvested by trypsinization with a solution containing 0.05% trypsin and 0.53 mM EDTA in Hank's balanced salt solution (HBSS, from Cellgro). Trypsinization was stopped by the addition of media supplemented with 10% FCS, cells were pelleted, washed three times in 1 ml HBSS, counted, then resuspended in 1× extraction buffer with protease inhibitors (50 mM Tris, pH 7.4, 100 mM NaCl, 5 mM MgCl2, 4 mM dithiothreitol, 0.1 IU/ml aprotinin, 0.5 mM PMSF and […] soybean trypsin inhibitor). Cells were lysed by three cycles of quick freezing and thawing, and the lysate was clarified by centrifugation at 15,000×g for 10 min at 4° C. If not immediately used; cell extracts were stored at −80° C. Protein assays were performed using the bicinchoninic acid reagent (Sigma) following the manufacturer instructions.
MAT activity in cell extracts was assayed as previously described (Kotb, M., and Kredich, N. M. (1985) J. Biol. Chem. 260, 3923-30). […] The concentration of L-Met was varied between […] using ^14C-L-Met (57.9 mCi/mmol) to a concentration of up to […], and supplementary with cold L-Met for higher concentrations.

C[S+](CC[C@H](N)C(=O)[O-])C[C@H]1O[C@@H](n2cnc3c(N)ncnc32)[C@H](O)[C@@H]1O (stereo partly shown) [AdoMet, S-adenosylmethionine, reference compound]
inhibition of enzyme activity ([1]; 25 μM AdoMet and 30 μM PPi): 3 fold | inhibition of enzyme activity ([1]; 25 μM AdoMet): ~2 fold | effect of AdoMet on enzyme [2]: activated | effect of AdoMet on enzyme [3]: inhibited

MAT I: hepatic MAT, tetramer of the α1 catalytic subunit
Km ([3]; read-out: Km for L-Met): 3 to 14 µM

MAT III: hepatic MAT, dimer of the α1 catalytic subunit
Km ([2]; read-out: Km for L-Met): 100 to 200 µM

recombinant human MAT II α2: recombinant catalytic α2 subunit of human MAT II, encoded by MAT2A, His-tagged
Km ([4]; listed as rMAT II α2 protein): 15.1 µM | Km ([4]; listed as rα2): 15 µM | effect on MAT (specific) activity ([4]; expression in Cos-1 cells, result in words): markedly increased | increase in MAT activity ([4]; transfected Cos-1 cell extracts compared to untransfected (or mock-transfected) cells): 3-4 fold
